# Earlier results, collected in the PKSmart pharmacokinetics tables (Seal et al. 2025).
# Where a SMILES comes first, the peptide text is derived from it. Bridges are numbered along the chain shown (N, C = ends). [ ]: non-standard residue; d: D form. hArg = N=C(N)NCCCC[CH](N)C(=O)O; Mpa = O=C(O)CCS
# Assay: Lombardo, Berellini, Obach 2018, Drug Metab Dispos 46:1466, doi 10.1124/dmd.118.082966
# Conditions: human; for MRT / Vd / clearance / half-life: in vivo, iv; for fraction unbound: plasma
Structure (SMILES),MRT,Vd,clearance,half-life,fraction unbound
CN1CC(C(=O)N[C@]2(C)O[C@@]3(O)[C@@H]4CCCN4C(=O)C(Cc4ccccc4)N3C2=O)C=C2c3cccc4[nH]cc(c34)C[C@H]21 (stereo partly drawn),4 h,3.6 L/kg,15 mL/min/kg,2.1 h,0.02
O=C1CN=C(c2ccccc2Cl)c2cc(Cl)ccc2N1,220 h,2.2 L/kg,0.17 mL/min/kg,200 h,0.051
O=C(NC[C@H](O)CO)c1ccncc1Nc1ccc(I)cc1F,3.55 h,1.8 L/kg,8.71 mL/min/kg,4.59 h,–
CC(C=Cc1c(C)c(O)c2ccccc2c1O)=CCC[C@H](C)CCC[C@H](C)CCCC(C)C,3.3 h,0.32 L/kg,1.6 mL/min/kg,7.3 h,–
COc1cccc2c1C(=O)c1c(O)c3c(c(O)c1C2=O)C[C@@](O)(C(=O)CO)C[C@@H]3O[C@H]1C[C@H](N2CCO[C@H](OC)C2)[C@H](O)[C@H](C)O1,53.3 h,49 L/kg,15.3 mL/min/kg,49.2 h,–
CC(c1ccccn1)c1c(CCN(C)C)sc2ccccc12 (stereo not drawn),6.8 h,1.83 L/kg,5.31 mL/min/kg,9.1 h,–
COc1cc(OC)c(C(=O)CCCN2CCCC2)c(OC)c1,3.9 h,1.3 L/kg,5.6 mL/min/kg,3.3 h,–
CN/C(=N\CCSCc1nc[nH]c1C)NC#N,2.5 h,1.2 L/kg,8.1 mL/min/kg,2.2 h,–
CC(C)C(=O)OCC(=O)[C@]12O[C@@H](C3CCCCC3)O[C@@H]1C[C@@H]1[C@@H]3CC=C4CC(=O)C=C[C@]4(C)[C@H]3[C@@H](O)C[C@@]12C,1.45 h,2.9 L/kg,33.3 mL/min/kg,1.04 h,0.01
COc1cc([S+](C)O)ccc1-c1nc2ncccc2[n-]1 (stereo not drawn),1 h,0.62 L/kg,10 mL/min/kg,0.8 h,0.41
C[N+]1(C)CCC(OC(=O)C(O)(c2ccccc2)C2CCCC2)C1 (stereo not drawn),0.37 h,–,–,–,–
O=C(O)CCCSCCN1C(=O)CC[C@@H]1/C=C/[C@@H](O)Cc1ccc(F)cc1,0.51 h,0.48 L/kg,15.8 mL/min/kg,0.38 h,–
O=C1CN=C(c2ccccc2)c2cc([N+](=O)[O-])ccc2N1,33 h,1.7 L/kg,0.86 mL/min/kg,26 h,–
COc1ccc(C(=O)Nc2ccccc2CCC2CCCCN2C)cc1 (stereo not drawn),2.8 h,2.2 L/kg,13 mL/min/kg,2.6 h,–
CS(=O)(=O)c1ccc([C@@H](O)[C@@H](COC(=O)CN)NC(=O)C(Cl)Cl)cc1,0.23 h,0.13 L/kg,9.6 mL/min/kg,0.28 h,0.27
CC1(C)O[C@@H]2C[C@H]3[C@@H]4CC=C5CC(=O)C=C[C@]5(C)[C@@]4(F)[C@@H](O)C[C@]3(C)[C@]2(C(=O)CO)O1,2.5 h,1.4 L/kg,9.4 mL/min/kg,2.4 h,0.2
CCN(CC)CCCC(C)Nc1c2ccc(Cl)cc2nc2ccc(OC)cc12 (stereo not drawn),150 h,45 L/kg,5.1 mL/min/kg,120 h,–
C/C(=C\c1csc(C)n1)[C@@H]1C[C@@H]2O[C@]2(C)CCC[C@H](C)[C@H](O)C(C)C(=O)C(C)(C)[C@@H](O)CC(=O)N1 (stereo partly drawn),18 h,11 L/kg,10 mL/min/kg,17 h,0.2

Structure (SMILES),MRT,Vd,clearance,half-life,fraction unbound
COC(=O)C1[C@@H](O)CC[C@H]2CN3CCc4c([nH]c5ccccc45)[C@@H]3C[C@@H]12 (stereo partly drawn),0.5 h,0.48 L/kg,14.6 mL/min/kg,1.5 h,–
CC1CNc2c(cccc2S(=O)(=O)NC(CCCNC(=N)N)C(=O)N2CC[C@@H](C)CC2C(=O)O)C1 (stereo partly drawn),0.57 h,0.17 L/kg,5 mL/min/kg,0.4 h,0.46
CN1CCN(CC(=O)N2c3ccccc3C(=O)Nc3cccnc32)CC1,10.3 h,1.71 L/kg,2.77 mL/min/kg,11.1 h,–
CC(CCc1ccccc1)NCC(O)c1ccc(O)c(C(N)=O)c1 (stereo not drawn),–,–,23 mL/min/kg,4.4 h,–
COc1ccc(C[C@@H]2c3cc(OC)c(OC)cc3CC[N@+]2(C)CCC(=O)OCCCCCOC(=O)CC[N@@+]2(C)CCc3cc(OC)c(OC)cc3[C@H]2Cc2ccc(OC)c(OC)c2)cc1OC,0.43 h,0.14 L/kg,5.4 mL/min/kg,0.42 h,0.62
C=C(CC)C(=O)c1ccc(OCC(=O)O)c(Cl)c1Cl,0.5 h,0.26 L/kg,8.7 mL/min/kg,0.5 h,–
COc1nc(C(Cl)(Cl)Cl)c(Cl)c(OC)c1Cl,5.1 h,9.1 L/kg,29.9 mL/min/kg,3.8 h,–
N=C(N)NCCCCC1NC(=O)CCSSCC(C(N)=O)NC(=O)C2CCCN2C(=O)C(Cc2c[nH]c3ccccc23)NC(=O)C(CC(=O)O)NC(=O)CNC1=O (stereo not drawn) ([Mpa][hArg]GDWPC-NH2; disulfide 1-7; configuration not given here),2.4 h,0.17 L/kg,1.2 mL/min/kg,4.2 h,0.75
CCC1=NC(=O)C2CSSCC/C=C/[C@H](CC(=O)NC(C(C)C)C(=O)N2)OC(=O)C(C(C)C)NC1=O (stereo partly drawn),2.6 h,–,7.4 mL/min/kg,11 h,0.07
CCCc1nn(C)c2c(=O)[nH]c(-c3cc(S(=O)(=O)N4CCN(C)CC4)ccc3OCC)nc12,2.5 h,1.36 L/kg,–,2.2 h,–
CN1C(=O)C(O)N=C(c2ccccc2Cl)c2cc(Cl)ccc21 (stereo not drawn),6.7 h,1.6 L/kg,4 mL/min/kg,4.9 h,–
NC1CCN(c2c(F)cc3c(=O)c(C(=O)O)cn(C4CC4)c3c2Cl)C1 (stereo not drawn),6.7 h,1.9 L/kg,4.7 mL/min/kg,5.4 h,–
Nc1nc(OCc2cc(Br)cs2)c2[nH]cnc2n1,–,–,21.6 mL/min/kg,2.92 h,–
CCN(CC)CCNC(=O)c1cc(S(C)(=O)=O)ccc1OC,3.8 h,1.1 L/kg,4.7 mL/min/kg,3.2 h,–
Nc1ccc(O)c(C(=O)O)c1,0.59 h,0.33 L/kg,9.3 mL/min/kg,0.61 h,0.39
CN(C)CCCN1c2ccccc2Sc2ccc(Cl)cc21,10 h,10 L/kg,16 mL/min/kg,11 h,–
CCNC(=O)C1C[C@@H](n2ccc3c(N[C@H](CC)Cc4sccc4Cl)ncnc32)[C@H](O)[C@@H]1O (stereo partly drawn),1.18 h,0.84 L/kg,12 mL/min/kg,1.33 h,0.03
COc1ccc2[nH]c3c(c2c1)CCN[C@]31CS[C@@H]2c3c(OC(C)=O)c(C)c4c(c3[C@H](COC1=O)N1[C@@H]2[C@H]2c3c(cc(C)c(OC)c3O)C[C@@H]([C@@H]1O)N2C)OCO4,44 h,7.3 L/kg,2.76 mL/min/kg,50.7 h,–
